This passage reports IC50 results from patent publication US11905288B1, “Pyrido[3″,4″:4′, 5′]pyrrolo[3′,2′:4,5]imidazole[1,2-c]pyrimidine compounds as CK2 inhibitors” (KING FAISAL UNIVERSITY, priority 2023, dated 2024).

For assay [1], the target named is T1, recombinant human CK2 (RRββ-holoenzyme) (Homo sapiens, UniProt P68400).
T1 construct: purchased Millipore
Put plainly: CK2 Kinase Assay (33P-ATP, filter plate). Type of assay: biochemical. Conditions: final ATP concentration 15 μM, 10 min at 30° C.; read-out: protein kinase CK2 activity IC50. How it is done:
CK2 Kinase Assay was conducted using the protocol as described in Pierre F. et al; J. Med. Chem. 2011, 54, 635-654. The tested compounds in aqueous solution were added at a volume of 10 μL to a reaction mixture comprising 10 μL of assay dilution buffer (ADB; 20 mM MOPS, pH 7.2, 25 mM β-glycerol phosphate, 5 mM EGTA, 1 mM sodium orthovanadate, and 1 mM dithiothreitol), 10 μL of substrate peptide (RRRDDDSDDD, dissolved in ADB at a concentration of 1 mM), 10 μL of recombinant human CK2 (RRββ-holoenzyme, 25 ng dissolved in ADB; Millipore). Reactions were initiated by the addition of 10 μL of ATP solution (90% 75 mMMgCl2, 75 μM ATP (final ATP concentration: 15 μM) dissolved in ADB; 10% [γ-33P] ATP (stock 1 mCi/100 μL; 3000 Ci/mmol (Perkin-Elmer) and maintained for 10 min at 30° C. The reactions were quenched with 100 μL of 0.75% phosphoric acid and then transferred to and filtered through a phosphor cellulose filter plate (Millipore). After washing each well five times with 0.75% phosphoric acid, the plate was dried under vacuum for 5 min and, following the addition of 15 μL of scintillation fluid to each well, the residual radioactivity was measured using a Wallac luminescence counter. The IC50 values were derived from eight concentrations of test inhibitors.

For a further assay, the system named is H1299 (lung). Put plainly: In vitro cytotoxic activity assay (MTT), H1299. Format: cell-based. The following applies: Homo sapiens, NCI-H1299; H1299 (lung) cells, exposed for 96 hours; read-out: IC50, concentration eliciting a 50% inhibition of cell proliferation. On the procedure: (§1) Compounds 1-15 were screened for their in vitro cytotoxic activity utilizing a 3-(4,5-dimethyl-thiazol-2-yl)-2,5-diphenyltetrazolium bromide (MTT) assay against selected cancer human cell lines consisting of PC3 (prostate), HCT116 (colon), A375 (melanoma), H1299 (lung), MIAPaCa-2 (pancreas), HL60 (leukemia), MCF7 (breast), MDA-MB-231 (breast) (T. Mosmann, J. Immunol. Meth., 1983, 65, 55-63). The cells were cultured at 37° C. in RMPI1640 medium supplemented with 10% fetal bovine serum, 50 IU/mL penicillin, and 50 μg/mL streptomycin in a 5% CO2 incubator. All cells were sub-cultured 3 times/week by trypsinisation. Viable cells were seeded and allowed to adhere for 12 h before a test drug was added in 96-well plates at an initial density of 1.0×10^5 cells/mL. Tumour cell lines were separately exposed to various concentrations of the tested compounds followed by incubation at a temperature of 37° C. during 96 h inside a medium of fresh RMPI 1640. Cells were subsequently incubated at 37° C. using MIT at 0.5 mg/mL during 4 h. After removal of supernatant, formazan crystals were dissolved in isopropanol and the optical density was measured at 570 nm. CX-4945 was used as a positive control.

The subject of the next assay is MCF7 (breast). Briefly: In vitro cytotoxic activity assay (MTT), MCF7. Type of assay: cell-based. Conditions: Homo sapiens; MCF7 (breast) cells, exposed for 96 hours; read-out: IC50, concentration eliciting a 50% inhibition of cell proliferation. On the procedure:
as §1

The next assay concerns MDA-MB-231 (breast). Put plainly: In vitro cytotoxic activity assay (MTT), MDA-MB-231. Conditions: Homo sapiens; MDA-MB-231 (breast) cells, exposed for 96 hours; read-out: IC50, concentration eliciting a 50% inhibition of cell proliferation. Type of assay: cell-based. On the procedure:
as §1

A further assay concerns MIAPaCa-2 (pancreas). Briefly: In vitro cytotoxic activity assay (MTT), MIAPaCa-2. Format: cell-based. The following applies: Homo sapiens, MIA PaCa-2; MIAPaCa-2 (pancreas) cells, exposed for 96 hours; read-out: IC50, concentration eliciting a 50% inhibition of cell proliferation. How it is done:
as §1

Another assay deals with PC3 (prostate). Briefly: In vitro cytotoxic activity assay (MTT), PC3. Type of assay: cell-based. The following applies: Homo sapiens, Prostate cell; PC3 (prostate) cells, exposed for 96 hours; read-out: IC50, concentration eliciting a 50% inhibition of cell proliferation. On the procedure: as §1
Another assay relates to HL60 (leukemia). Briefly: In vitro cytotoxic activity assay (MTT), HL60. Type of assay: cell-based. Conditions: Homo sapiens, HL-60; HL60 (leukemia) cells, exposed for 96 hours; read-out: IC50, concentration eliciting a 50% inhibition of cell proliferation. How it is done:
as §1

A further assay concerns HCT116 (colon). Briefly: In vitro cytotoxic activity assay (MTT), HCT116. Type of assay: cell-based. Conditions: Homo sapiens, HCT-116; HCT116 (colon) cells, exposed for 96 hours; read-out: IC50, concentration eliciting a 50% inhibition of cell proliferation. How it is done:
as §1

In a further assay the test system is A375 (melanoma). Put plainly: In vitro cytotoxic activity assay (MTT), A375. The following applies: Homo sapiens, A-375; A375 (melanoma) cells, exposed for 96 hours; read-out: IC50, concentration eliciting a 50% inhibition of cell proliferation. Type of assay: cell-based. On the procedure:
as §1

T1 sequence (P68400 whole entry): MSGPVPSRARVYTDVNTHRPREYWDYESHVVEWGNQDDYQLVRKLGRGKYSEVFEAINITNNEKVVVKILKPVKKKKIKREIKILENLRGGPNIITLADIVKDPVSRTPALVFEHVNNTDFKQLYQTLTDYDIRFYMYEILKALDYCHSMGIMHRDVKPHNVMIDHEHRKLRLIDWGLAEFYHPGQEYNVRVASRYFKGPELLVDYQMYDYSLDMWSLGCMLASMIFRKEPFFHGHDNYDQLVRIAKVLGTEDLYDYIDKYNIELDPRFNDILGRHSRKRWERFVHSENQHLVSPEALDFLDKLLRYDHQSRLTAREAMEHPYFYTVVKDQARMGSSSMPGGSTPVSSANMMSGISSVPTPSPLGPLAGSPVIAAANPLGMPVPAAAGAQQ
T1 sequence (P67870 whole entry partner): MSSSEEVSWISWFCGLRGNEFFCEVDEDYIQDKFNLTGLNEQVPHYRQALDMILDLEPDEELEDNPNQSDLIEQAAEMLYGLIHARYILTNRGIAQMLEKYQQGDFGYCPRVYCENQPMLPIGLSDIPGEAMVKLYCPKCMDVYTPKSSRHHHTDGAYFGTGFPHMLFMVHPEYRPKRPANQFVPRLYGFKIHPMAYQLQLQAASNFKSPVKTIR

Consider `Clc1cccc(-n2c3ccncc3c3nc4ccncn4c32)c1` [Compound 1, 5-(3-chlorophenyl)-5H-pyrido[3″,4″:4′,5′]pyrrolo[3′,2′:4,5]imidazo[1,2-c]pyrimidine], for which the IC50 in assay [1] came to 56 nM; in the assay on H1299 (lung), 2600 nM; with MCF7 (breast), 4100 nM; with MDA-MB-231 (breast), 2400 nM; with MIAPaCa-2 (pancreas), 900 nM; in the assay on PC3 (prostate), 1300 nM. Besides, the IC50 turned out to be 2800 nM with HL60 (leukemia), 2100 nM in the assay with HCT116 (colon) and 3700 nM in the assay with A375 (melanoma).
